Laboratory results taken from ChEMBL document CHEMBL1201862, “PubChem BioAssay data set” (2004).
Where “and” joins values, the source holds several entries; their conditions need not be identical. Equal values may be shown once.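 A five-concentration, 48-hour dose response in 96-well plates underlies each endpoint, interpolated linearly between surrounding concentrations. GI50 marks 50% less growth.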 Calls of active or inactive are those of the source. Cut-off read from the data, not from the text of the source: active = GI50 up to about 1.1 µM and inactive = higher.

What was measured:
Experiment in all cases: NCI tumour cell line growth inhibition, 48 h
HT-29 = tested on: HT-29
EKVX = tested on: EKVX
HCT-116 = tested on: HCT-116
SK-MEL-5 = tested on: SK-MEL-5
HL-60 = tested on: HL-60
COLO 205 = tested on: COLO 205
SK-OV-3 = tested on: SK-OV-3
T47D = tested on: T47D
SNB-19 = tested on: SNB-19
U-251 = tested on: U-251
SK-MEL-28 = tested on: SK-MEL-28
A498 = tested on: A498
TK-10 = tested on: TK-10
SNB-75 = tested on: SNB-75
SW-620 = tested on: SW-620
UACC-257 = tested on: UACC-257
M14 = tested on: M14
HCC 2998 = tested on: HCC 2998
786-0 = tested on: 786-0
SR = tested on: SR
K562 = tested on: K562
HCT-15 = tested on: HCT-15
RPMI-8226 = tested on: RPMI-8226
NCI/ADR-RES = tested on: NCI/ADR-RES
DU-145 = tested on: DU-145
A549 = tested on: A549
MCF7 = tested on: MCF7
CAKI-1 = tested on: CAKI-1
OVCAR-4 = tested on: OVCAR-4
OVCAR-5 = tested on: OVCAR-5
NCI-H460 = tested on: NCI-H460
SN12C = tested on: SN12C
MDA-N = tested on: MDA-N
RXF 393 = tested on: RXF 393
CCRF-CEM = tested on: CCRF-CEM
NCI-H226 = tested on: NCI-H226
HOP-62 = tested on: HOP-62
OVCAR-8 = tested on: OVCAR-8
NCI-H23 = tested on: NCI-H23
HOP-92 = tested on: HOP-92
PC-3 = tested on: PC-3
SK-MEL-2 = tested on: SK-MEL-2
LOX IMVI = tested on: LOX IMVI
UO-31 = tested on: UO-31
MOLT-4 = tested on: MOLT-4
BT-549 = tested on: BT-549
KM12 = tested on: KM12
SF-295 = tested on: SF-295
OVCAR-3 = tested on: OVCAR-3
ACHN = tested on: ACHN
MDA-MB-435 = tested on: MDA-MB-435
Malme-3M = tested on: Malme-3M
MDA-MB-231 = tested on: MDA-MB-231
NCI-H522 = tested on: NCI-H522
SF-268 = tested on: SF-268
SF-539 = tested on: SF-539
IGROV-1 = tested on: IGROV-1

SMILES: COc1cc(Nc2nc3cc(N)cc(N)c3nc2-c2ccccc2)cc(OC)c1OC
- GI50 (HT-29): 16.6 µM (inactive)

SMILES: COC(=O)C1(C(=O)OC)N=C(C)OC1C(C)C (configuration not stated)
- GI50 (EKVX): > 100 µM (inactive)
- GI50 (HCT-116): > 100 µM (inactive)
- GI50 (SK-MEL-5): > 100 µM (inactive)
- GI50 (HL-60): 37.5 µM (inactive)
- GI50 (COLO 205): > 100 µM (inactive)
- GI50 (SK-OV-3): > 100 µM (inactive)
- GI50 (T47D): > 100 µM (inactive)
- GI50 (SNB-19): > 100 µM (inactive)
- GI50 (U-251): > 100 µM (inactive)
- GI50 (SK-MEL-28): > 100 µM (inactive)
- GI50 (A498): > 100 µM (inactive)
- GI50 (TK-10): > 100 µM (inactive)
- GI50 (SNB-75): > 100 µM (inactive)
- GI50 (SW-620): > 100 µM (inactive)
- GI50 (UACC-257): > 100 µM (inactive)
- GI50 (M14): > 100 µM (inactive)
- GI50 (HCC 2998): > 100 µM (inactive)
- GI50 (786-0): > 100 µM (inactive)
- GI50 (SR): > 100 µM (inactive)
- GI50 (K562): > 100 µM (inactive)
- GI50 (HCT-15): > 100 µM
- GI50 (RPMI-8226): > 100 µM (inactive)
- GI50 (NCI/ADR-RES): > 100 µM (inactive)
- GI50 (DU-145): > 100 µM (inactive)
- GI50 (A549): > 100 µM (inactive)
- GI50 (MCF7): > 100 µM (inactive)
- GI50 (CAKI-1): > 100 µM (inactive)
- GI50 (OVCAR-4): > 100 µM (inactive)
- GI50 (OVCAR-5): > 100 µM (inactive)
- GI50 (NCI-H460): > 100 µM (inactive)
- GI50 (SN12C): > 100 µM (inactive)
- GI50 (MDA-N): > 100 µM (inactive)
- GI50 (RXF 393): > 100 µM (inactive)
- GI50 (CCRF-CEM): > 100 µM (inactive)
- GI50 (NCI-H226): > 100 µM (inactive)
- GI50 (HOP-62): > 100 µM (inactive)
- GI50 (OVCAR-8): > 100 µM (inactive)
- GI50 (NCI-H23): > 100 µM (inactive)
- GI50 (HOP-92): > 100 µM (inactive)
- GI50 (PC-3): > 100 µM (inactive)
- GI50 (SK-MEL-2): > 100 µM (inactive)
- GI50 (LOX IMVI): > 100 µM (inactive)
- GI50 (UO-31): > 100 µM (inactive)
- GI50 (MOLT-4): > 100 µM (inactive)
- GI50 (BT-549): > 100 µM (inactive)
- GI50 (KM12): > 100 µM (inactive)
- GI50 (SF-295): > 100 µM (inactive)
- GI50 (OVCAR-3): > 100 µM (inactive)
- GI50 (ACHN): > 100 µM (inactive)
- GI50 (MDA-MB-435): > 100 µM (inactive)

SMILES: CC(=O)OCC1OC(n2c(-c3ccccc3)c(C(C)=O)c(-c3cccc4ccccc34)c(C#N)c2=S)C(OC(C)=O)C(OC(C)=O)C1OC(C)=O (configuration not stated)
- GI50 (Malme-3M): > 100 µM (inactive)
- GI50 (EKVX): 83.6 µM (inactive)
- GI50 (HCT-116): > 100 µM (inactive)
- GI50 (SK-MEL-5): > 100 µM (inactive)
- GI50 (HL-60): > 100 µM (inactive)
- GI50 (COLO 205): > 100 µM (inactive)
- GI50 (MDA-MB-231): > 100 µM (inactive) and 54.1 µM (inactive)
- GI50 (SK-OV-3): > 100 µM (inactive)
- GI50 (HT-29): > 100 µM (inactive)
- GI50 (T47D): > 100 µM (inactive)
- GI50 (SNB-19): > 100 µM (inactive)
- GI50 (U-251): > 100 µM (inactive)
- GI50 (SK-MEL-28): > 100 µM (inactive)
- GI50 (A498): > 100 µM (inactive)
- GI50 (TK-10): > 100 µM (inactive)
- GI50 (SW-620): > 100 µM (inactive)
- GI50 (UACC-257): > 100 µM (inactive)
- GI50 (M14): > 100 µM (inactive)
- GI50 (HCC 2998): > 100 µM (inactive)
- GI50 (786-0): > 100 µM (inactive)
- GI50 (SR): > 100 µM (inactive)
- GI50 (K562): > 100 µM (inactive)
- GI50 (NCI-H522): > 100 µM (inactive)
- GI50 (HCT-15): > 100 µM
- GI50 (NCI/ADR-RES): > 100 µM (inactive)
- GI50 (DU-145): > 100 µM (inactive)
- GI50 (A549): > 100 µM (inactive)
- GI50 (MCF7): > 100 µM (inactive)
- GI50 (OVCAR-4): 28.7 µM (inactive) and 17.9 µM (inactive)
- GI50 (OVCAR-5): > 100 µM (inactive)
- GI50 (NCI-H460): > 100 µM (inactive)
- GI50 (SN12C): > 100 µM (inactive)
- GI50 (MDA-N): > 100 µM (inactive)
- GI50 (RXF 393): > 100 µM (inactive)
- GI50 (CCRF-CEM): > 100 µM (inactive)
- GI50 (SF-268): > 100 µM (inactive)
- GI50 (NCI-H226): > 100 µM (inactive)
- GI50 (SF-539): > 100 µM (inactive)
- GI50 (HOP-62): > 100 µM (inactive)
- GI50 (OVCAR-8): > 100 µM (inactive)
- GI50 (IGROV-1): > 100 µM (inactive)
- GI50 (NCI-H23): > 100 µM (inactive)
- GI50 (PC-3): 62.2 µM (inactive)
- GI50 (SK-MEL-2): > 100 µM (inactive)
- GI50 (LOX IMVI): > 100 µM (inactive)
- GI50 (UO-31): < 0.01 µM (active)
- GI50 (MOLT-4): > 100 µM (inactive)
- GI50 (KM12): > 100 µM (inactive)
- GI50 (SF-295): > 100 µM (inactive)
- GI50 (OVCAR-3): > 100 µM (inactive)
- GI50 (ACHN): > 100 µM (inactive)
- GI50 (MDA-MB-435): > 100 µM (inactive)

SMILES: Cc1cnc(Cl)nc1C(C#N)c1nc2ccccc2s1 (configuration not stated)
- GI50 (Malme-3M): 9.31 µM (inactive)
- GI50 (EKVX): 32.8 µM (inactive)
- GI50 (HCT-116): 10.5 µM (inactive)
- GI50 (SK-MEL-5): 5.57 µM (inactive)
- GI50 (COLO 205): 14.2 µM (inactive)
- GI50 (MDA-MB-231): 40.9 µM (inactive)
- GI50 (SK-OV-3): 18 µM (inactive)
- GI50 (HT-29): 29.6 µM (inactive)
- GI50 (T47D): 34.1 µM (inactive)
- GI50 (SNB-19): 34.2 µM (inactive)
- GI50 (U-251): 20.1 µM (inactive)
- GI50 (SK-MEL-28): 69 µM (inactive)
- GI50 (A498): 25.2 µM (inactive)
- GI50 (TK-10): 24.8 µM (inactive)
- GI50 (SNB-75): 18.8 µM (inactive)
- GI50 (SW-620): 33.6 µM (inactive)
- GI50 (UACC-257): 31.7 µM (inactive)
- GI50 (M14): 28 µM (inactive)
- GI50 (786-0): 15.7 µM (inactive)
- GI50 (NCI-H522): 2.84 µM (inactive)
- GI50 (HCT-15): 16.6 µM
- GI50 (RPMI-8226): 12.6 µM (inactive)
- GI50 (NCI/ADR-RES): 22 µM (inactive)
- GI50 (DU-145): 31.8 µM (inactive)
- GI50 (A549): 29 µM (inactive)
- GI50 (CAKI-1): 22.4 µM (inactive)
- GI50 (OVCAR-4): 22.8 µM (inactive)
- GI50 (OVCAR-5): 25.8 µM (inactive)
- GI50 (NCI-H460): 30.7 µM (inactive)
- GI50 (SN12C): 14.1 µM (inactive)
- GI50 (MDA-N): 15 µM (inactive)
- GI50 (RXF 393): 17.2 µM (inactive)
- GI50 (SF-268): 15.7 µM (inactive)
- GI50 (NCI-H226): 14.7 µM (inactive)
- GI50 (SF-539): 25.8 µM (inactive)
- GI50 (HOP-62): 22.2 µM (inactive)
- GI50 (OVCAR-8): 25.7 µM (inactive)
- GI50 (IGROV-1): 21.6 µM (inactive)
- GI50 (NCI-H23): 7 µM (inactive)
- GI50 (HOP-92): 7.33 µM (inactive)
- GI50 (LOX IMVI): 18.8 µM (inactive)
- GI50 (UO-31): 31.7 µM (inactive)
- GI50 (MOLT-4): 63.5 µM (inactive)
- GI50 (BT-549): 12.4 µM (inactive)
- GI50 (KM12): 33.8 µM (inactive)
- GI50 (SF-295): 19.8 µM (inactive)
- GI50 (OVCAR-3): 25.5 µM (inactive)
- GI50 (ACHN): 18.7 µM (inactive)
- GI50 (MDA-MB-435): 22.5 µM (inactive)
